Laboratory results taken from ChEMBL document CHEMBL1909607, “Synthesis and radioligand binding studies of bis-(8-isopropyl-isoquinolinium) derivatives as ligands for apamin-sensitive sites on cloned SK2 and SK3 channels” (Bioorg Med Chem Lett, 2011).

Tests used:
Assay type in all cases: cell-based
[1] = molecular target: T1, Small conductance calcium-activated potassium channel protein 2 (Homo sapiens, UniProt Q9H2S1); experiment: Inhibition of cloned SK2 channel expressed in human HEK293 cells at 10 uM
[2] = molecular target: T2, Small conductance calcium-activated potassium channel protein 3 (Homo sapiens, UniProt Q9UGI6); experiment: Inhibition of cloned human SK3 channel expressed in human HEK293 cells by patch clamp assay in the presence of 1 uM intracellular Ca2+
[3] = molecular target: T2, Small conductance calcium-activated potassium channel protein 3; experiment: Displacement of [125I]-apamin from cloned SK3 channel expressed in human HEK293 cells after 1 hr by liquid scintillation counting
[4] = molecular target: T1, Small conductance calcium-activated potassium channel protein 2; experiment: Displacement of [125I]-apamin from cloned SK2 channel expressed in human HEK293 cells after 1 hr by liquid scintillation counting
[5] = molecular target: Small conductance calcium-activated potassium channel protein 2 (Rattus norvegicus, UniProt P70604); experiment: Inhibition of cloned rat SK2 channel expressed in human HEK293 cells by patch clamp assay in the presence of 1 uM intracellular Ca2+
Chain of Small conductance calcium-activated potassium channel protein 2 (Rattus norvegicus, UniProt P70604) (P70604 whole entry): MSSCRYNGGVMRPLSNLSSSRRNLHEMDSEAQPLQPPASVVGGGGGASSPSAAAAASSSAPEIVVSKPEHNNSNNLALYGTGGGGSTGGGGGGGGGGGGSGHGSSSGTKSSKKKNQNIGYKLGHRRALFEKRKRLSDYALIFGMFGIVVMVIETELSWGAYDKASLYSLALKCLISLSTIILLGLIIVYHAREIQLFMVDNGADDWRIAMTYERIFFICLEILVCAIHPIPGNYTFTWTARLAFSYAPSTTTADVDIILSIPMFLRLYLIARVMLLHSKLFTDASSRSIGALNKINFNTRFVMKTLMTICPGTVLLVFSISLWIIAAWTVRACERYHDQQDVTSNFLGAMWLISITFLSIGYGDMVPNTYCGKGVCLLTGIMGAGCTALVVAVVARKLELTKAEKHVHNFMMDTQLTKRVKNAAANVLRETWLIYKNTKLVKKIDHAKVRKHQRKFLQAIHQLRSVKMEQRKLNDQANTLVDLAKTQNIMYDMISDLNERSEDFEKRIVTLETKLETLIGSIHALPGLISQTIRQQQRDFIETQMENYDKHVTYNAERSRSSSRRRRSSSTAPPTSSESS

T1 sequence (Q9H2S1 whole entry): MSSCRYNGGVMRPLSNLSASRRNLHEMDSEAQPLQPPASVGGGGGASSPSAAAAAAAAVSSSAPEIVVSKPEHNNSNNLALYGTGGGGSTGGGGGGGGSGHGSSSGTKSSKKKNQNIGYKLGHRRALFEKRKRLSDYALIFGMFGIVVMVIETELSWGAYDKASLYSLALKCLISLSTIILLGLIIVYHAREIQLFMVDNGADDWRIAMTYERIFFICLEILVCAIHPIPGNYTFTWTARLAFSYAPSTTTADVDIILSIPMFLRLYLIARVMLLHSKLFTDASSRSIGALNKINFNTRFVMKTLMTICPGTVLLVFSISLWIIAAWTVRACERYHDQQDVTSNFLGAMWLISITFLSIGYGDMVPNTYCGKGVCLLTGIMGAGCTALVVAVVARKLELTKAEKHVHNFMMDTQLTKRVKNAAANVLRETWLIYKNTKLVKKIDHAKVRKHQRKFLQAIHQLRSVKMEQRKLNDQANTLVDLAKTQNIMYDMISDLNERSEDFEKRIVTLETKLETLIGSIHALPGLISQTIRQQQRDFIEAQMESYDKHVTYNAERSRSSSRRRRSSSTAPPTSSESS
T2 sequence (Q9UGI6 whole entry): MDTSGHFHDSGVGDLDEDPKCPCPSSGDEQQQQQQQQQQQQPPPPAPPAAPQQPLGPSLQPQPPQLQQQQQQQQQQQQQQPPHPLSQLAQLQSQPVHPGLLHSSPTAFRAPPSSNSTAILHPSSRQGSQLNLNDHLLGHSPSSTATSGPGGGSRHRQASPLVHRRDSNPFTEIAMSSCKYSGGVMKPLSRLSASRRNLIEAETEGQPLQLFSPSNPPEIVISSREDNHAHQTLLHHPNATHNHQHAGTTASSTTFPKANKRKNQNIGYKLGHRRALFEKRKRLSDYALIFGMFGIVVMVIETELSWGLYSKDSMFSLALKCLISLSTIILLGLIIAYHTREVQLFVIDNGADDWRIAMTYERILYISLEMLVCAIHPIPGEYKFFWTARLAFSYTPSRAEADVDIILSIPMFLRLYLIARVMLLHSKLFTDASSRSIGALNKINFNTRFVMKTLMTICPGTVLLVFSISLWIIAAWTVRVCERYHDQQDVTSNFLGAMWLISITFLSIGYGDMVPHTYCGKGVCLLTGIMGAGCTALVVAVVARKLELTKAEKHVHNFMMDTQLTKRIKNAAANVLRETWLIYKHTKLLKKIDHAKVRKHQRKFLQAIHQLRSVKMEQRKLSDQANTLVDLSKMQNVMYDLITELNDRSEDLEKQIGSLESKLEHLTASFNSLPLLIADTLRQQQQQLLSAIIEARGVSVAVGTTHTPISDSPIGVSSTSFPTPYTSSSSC

| SMILES | inhibition [1] [%] | Ki [3] [nM] | Ki [4] [nM] | other results |
| --- | --- | --- | --- | --- |
| CC(C)c1cccc2c1C(Cc1ccc(CC3c4c(cccc4C(C)C)CCN3C)cc1)N(C)CC2 (racemic) | 41 | – | – | – |
| CC(C)c1cccc2c1C(CCCCC1c3c(cccc3C(C)C)CCN1C)N(C)CC2 (racemic) | 41 | – | – | – |
| CC(C)c1cccc2cc[n+](C)c(Cc3cccc(Cc4c5c(C(C)C)cccc5cc[n+]4C)c3)c12 | – | 46 | 90 | IC50 [2]: 2970 nM; IC50 [5]: 1600 nM |
| CC(C)c1cccc2cc[n+](C)c(CCCc3c4c(C(C)C)cccc4cc[n+]3C)c12 | – | 837 | 593 | – |
| CC(C)c1cccc2cc[n+](C)c(CCCCCc3c4c(C(C)C)cccc4cc[n+]3C)c12 | – | 575 | 878 | – |

The next lines start with results.

| inhibition [1] [%] | Ki [3] [nM] | Ki [4] [nM] | SMILES | other results |
| --- | --- | --- | --- | --- |
| 41 | – | – | CC(C)c1cccc2c1C(Cc1cccc(CC3c4c(cccc4C(C)C)CCN3C)c1)N(C)CC2 (racemic) | – |
| 41 | – | – | CC(C)c1cccc2c1C(CCCCCC1c3c(cccc3C(C)C)CCN1C)N(C)CC2 (racemic) | – |
| – | 214 | 194 | CC(C)c1cccc2cc[n+](C)c(CCCCc3c4c(C(C)C)cccc4cc[n+]3C)c12 | – |
| 41 | – | – | CC(C)c1cccc2c1C(CCCC1c3c(cccc3C(C)C)CCN1C)N(C)CC2 (racemic) | – |
| – | 1270 | 397 | CC(C)c1cccc2cc[n+](C)c(Cc3ccc(Cc4c5c(C(C)C)cccc5cc[n+]4C)cc3)c12 | – |
